Residues, ends and D or L forms follow the SMILES beside them. No end group written: not given here.

In one data set the test system is chymotrypsin. As to the kind of experiment: In vitro digestion stability, chymotrypsin. The data set is classed as in vitro ADME. The settings on record: simulated gastrointestinal digestion, individually or continuously, compared with before digestion, peptide 0.5 mg/mL (TEAC), 1.0 mg/mL (superoxide), n = 3. The text has this:
(§1) According to the main components of human gastrointestinal digestive juice and digestive environment, a human gastrointestinal digestion simulation system was established to study the antioxidant activity changes of peptides after digestion by human gastrointestinal digestion simulation system. The method was according to the previously reported by Jang et al..
(§2) Peptides 2 and 4 synthesized in this study might be better antioxidants than the other peptides because of their high resistance to superoxide anion radical and high TEACs (Fig. 5) (P < 0.05). The peptide concentrations for the determination of superoxide anion radical scavenging activity and TEAC in the stability study (3.5 and 3.6) were chosen to be 1.0 and 0.5 mg/mL, respectively, according to the experimental results.

Data set [1] is described as follows: Temperature stability of antioxidant activity. It is filed as physicochemical. The settings on record: compared with the three other peptides; read-out superoxide scavenging and TEAC. As for the experimental part: The antioxidant activities of purple wheat bran antioxidant peptides at different passivation temperatures for 60 min were studied. The detection method of antioxidant activities was shown in 2.4. Before the antioxidant activities were measured, the samples allowed to cool to room temperature (25 °C) and pH was adjusted to 7.0.
as §2

Another data set concerns pepsin. Description: In vitro digestion stability, pepsin. The data set is classed as in vitro ADME. Particulars: simulated gastrointestinal digestion, compared with before digestion, peptide 0.5 mg/mL (TEAC), 1.0 mg/mL (superoxide), n = 3.
From the text: as §1, §2

In a further data set the test system is trypsin. As to the kind of experiment: In vitro digestion stability, trypsin. Particulars: simulated gastrointestinal digestion, compared with before digestion, peptide 0.5 mg/mL (TEAC), 1.0 mg/mL (superoxide), n = 3. The data set is classed as in vitro ADME.
From the text: as §1, §2

Data set [2] is described as follows: Superoxide anion radical scavenging activity assay (pyrogallol autoxidation method). It is filed as biochemical. The settings on record: synthesized peptides, Tris-HCl pH 8.3, 320 nm, n = 3. On the procedure: Superoxide anion radical scavenging activity assay was measured using the pyrogallol autoxidation method with some modifications. Mix 1.6 mL of sample with an equal volume of 50 mM Tris–HCl buffer (pH 8.3). The mixture was incubated in a bath for 20 min, then 0.8 mL of 1.5 mM pyrogallic acid was added. Absorbance of the mixture was measured at 320 nm every 30 s for 5 min. For blank, 1.6 mL of Tris–HCl buffer was used instead of sample. Ascorbic acid and GSH were used as positive controls. Superoxide anion radical scavenging activity was calculated as: O2-clearancerate%=1-ΔODS/ΔODb×100%, Where,ΔODSandΔODb represented slope of absorbance line for sample and slope of absorbance line for blank.

The nature of data set [3]: Trolox equivalent antioxidant capacity (TEAC), ABTS radical scavenging. It is filed as biochemical. The settings on record: synthesized peptides; PBS pH 7.4, 30 °C, 30 min, 734 nm; n = 3. On the procedure: The experiment referred to methods of Costa and Xing and made appropriate modifications. This method used Trolox as the standard antioxidant and all reagents were prepared in 50 mmol/L phosphate buffered solution (pH 7.4). The specific operation was as follows: PBS (50 µL) solution (blank group), different concentrations of Trolox solution (standard control group) and sample solution to be tested (sample group) were added to a transparent 96-well microplate, and then 150 µL ABTS^+· was quickly added. The solution was shaken at 30 °C for 30 min and its absorbance was measured at 734 nm using a microplate scanning spectrophotometer (Multiskan FC, Thermo Fisher Scientific (Shanghai), China). ABTS radical scavenging activity was calculated as ABTS+·clearancerate%=1-ASample/ABlank×100

For `C[C@H](NC(=O)[C@@H](N)CCC(N)=O)C(=O)N[C@@H](CS)C(=O)O` [peptide 2, Gln-Ala-Cys] (H-Gln-Ala-Cys-OH), in the data set with chymotrypsin, the “TEAC and superoxide anion radical scavenging activity after digestion by chymotrypsin” value is “remained at the same levels”. Further, the “temperature stability (overall)” value in data set [1] is listed as “better temperature stability”. For the same compound, in the data set with pepsin, the “TEAC and superoxide anion radical scavenging activity after digestion by pepsin” value is recorded as “remained at the same levels”. The “TEAC and superoxide anion radical scavenging activity after digestion by trypsin” value with trypsin is “remained at the same levels”.
Take `N=C(N)NCCC[C@H](N)C(=O)N[C@@H](CC(N)=O)C(=O)N[C@@H](Cc1ccccc1)C(=O)O` [peptide 3, Arg-Asn-Phe] (H-Arg-Asn-Phe-OH): the “TEAC and superoxide anion radical scavenging activity after digestion by chymotrypsin” value in the data set with chymotrypsin is listed as “significant reduction”. Moreover, the “TEAC and superoxide anion radical scavenging activity after digestion by pepsin” value with pepsin is given as “insignificant changes”. Further, the “TEAC and superoxide anion radical scavenging activity after digestion by trypsin” value with trypsin was “significantly declined”.
`N[C@@H](CO)C(=O)N[C@@H](CO)C(=O)N[C@@H](CS)C(=O)O` [peptide 4, Ser-Ser-Cys] (H-Ser-Ser-Cys-OH): in the data set on chymotrypsin, the “TEAC and superoxide anion radical scavenging activity after digestion by chymotrypsin” value is recorded as “remained at the same levels”. In addition, the “temperature stability (overall)” value in data set [1] is “better temperature stability”. Further, the “TEAC and superoxide anion radical scavenging activity after digestion by pepsin” value with pepsin was “remained at the same levels”. The “TEAC and superoxide anion radical scavenging activity after digestion by trypsin” value in the data set on trypsin was “remained at the same levels”.
In the case of `N[C@@H](Cc1c[nH]c2ccccc12)C(=O)N[C@@H](Cc1ccccc1)C(=O)O` [peptide 5, Trp-Phe] (H-Trp-Phe-OH), the “TEAC and superoxide anion radical scavenging activity after digestion by chymotrypsin” value in the data set with chymotrypsin is on record as “significant reduction”. In addition, the “TEAC and superoxide anion radical scavenging activity after digestion by pepsin” value in the data set on pepsin is recorded as “insignificant changes”.
As to “CGFPGHC (cysteine pairing not given here) [peptide 1, antioxidant peptide identified in F4-4 of purple wheat bran protein hydrolysate, synthesized by Fmoc solid phase method]”, the “IC50, superoxide anion radical scavenging” value in data set [2] is 2898 µg/mL. Moreover, the “TEAC and superoxide anion radical scavenging activity after digestion by chymotrypsin” value in the data set with chymotrypsin is recorded as “significant reduction”. For the same compound, in data set [3], the “IC50, TEAC (ABTS radical scavenging)” value came out at 763 µg/mL. The “TEAC and superoxide anion radical scavenging activity after digestion by pepsin” value in the data set with pepsin is reported as “insignificant changes”.

These data come from paper PMC7533037, “Purification, structural analysis, and stability of antioxidant peptides from purple wheat bran” (BMC Chemistry, 2020).
